Results published in EP4793274A1, “SALT AND CRYSTAL FORM OF KIF18A INHIBITOR COMPOUND, PREPARATION METHOD THEREFOR AND USE THEREOF” (Hubei Bio-Pharmaceutical Industrial Technological Institute …, priority 2023, dated 2025).

What was measured:
[1] = Dynamic solubility at 37 °C in H2O, SGF, FaSSIF and FeSSIF (HPLC concentration, pH of filtrate, XRPD of residual solid); assay type: physicochemical; details: listed as Crystal form B of p-toluenesulfonate; for S: solubility: feeding concentration 10 mg/mL; for FC: crystal form change: XRPD of residual solid; for pH: pH of filtrate
Method: 0.82 mL of glacial acetic acid and 1.18 g of NaCl were added to a 100 mL volumetric flask and completely dissolved by addition of purified water.
The solubility of each sample in H2O, SGF, FaSSIF, and FeSSIF was determined at different time points (1 h, 2 h, 4 h, and 24 h). […] 137-156. […] Table C-2. Summary of dynamic solubility test results at 37 °C

[2] = Hygroscopicity by dynamic vapor sorption (DVS); assay type: physicochemical; details: 25 °C/80% RH
Method: Dynamic vapor sorption (DVS) curves were acquired on a DVS IntrInsic from Surface Measurement Systems (SMS). The relative humidity at 25 °C was corrected with the deliquescence points of LiCl, Mg(NO3)2, and KCl. Table A-5. DVS test parameters
The percentage changes in mass of the samples when the humidity changed (0% RH to 95% RH) at a constant temperature of 25 °C were collected. 157-166.

[3] = Solid state stability (XRPD and HPLC purity); assay type: physicochemical
Description: 167-171. […] Table C-3. Summary of solid state stability evaluation

[4] = Solubility at room temperature in water, SGF and FaSSIF (HPLC concentration, pH of filtrate, XRPD of residual solid); details: listed as Crystal form B of p-toluenesulfonate; for S: solubility: feeding concentration 1 mg/mL; for pH: pH of filtrate
Method: 100 mg of NaCl and 50 mg of Triton X-100 were weighed into a 50 mL volumetric flask and then completely dissolved by addition of purified water. 816 µL of 1 M hydrochloric acid was added, and the pH was adjusted to 1.8 with 1 M hydrochloric acid or 1 M NaOH solution. The mixed solution was brought to the volume by addition of purified water.
340 mg of anhydrous NaH2PO4 and 620 mg of NaCl were weighed into a 100 mL volumetric flask, and then completely dissolved by addition of purified water. 55.44 µL of a 50% NaOH solution was then added, and the pH was adjusted to 6.5 with 1 M hydrochloric acid or 1 M NaOH solution. The mixed solution was brought to the volume by addition of purified water. Subsequently, 110 mg of SIF powder was weighed into a 50 mL volumetric flask and completely dissolved in the solution described above, and the mixed solution was brought to the volume.
Solids at a feeding concentration of 1 mg/mL (calculated based on free crystal form) were rotationally mixed with corresponding vehicles at room temperature. […] After sampling at each time point, the samples were centrifuged (at 10000 rpm) and filtered (through a 0.22 µm PTFE filter head), the HPLC concentrations and pH values of the filtrates were determined, and the centrifuged solid samples were subjected to XRPD analysis.

[5] = 80 °C/sealed, 1 day, listed as Crystal form B of p-toluenesulfonate

Cc1cc(-c2cnn(-c3ccc(NS(=O)(=O)CCO)cc3N3CCC4(CC3)CC4)c2)nc(N2CCC(F)(F)CC2)n1 [crystal form B of the p-toluenesulfonate]
S: solubility ([1]; FaSSIF, 1 h, 60 min): 61.4 µg/mL | S: solubility ([1]; FaSSIF, 2 h, 120 min): 51.7 µg/mL | S: solubility ([1]; FaSSIF, 4 h, 240 min): 22.2 µg/mL | S: solubility ([1]; FaSSIF, 24 h, 1440 min): 16.3 µg/mL | S: solubility ([1]; FeSSIF, 1 h, 60 min): 182.8 µg/mL | S: solubility ([1]; FeSSIF, 2 h, 120 min): 166.5 µg/mL | S: solubility ([1]; FeSSIF, 4 h, 240 min): 159.9 µg/mL | S: solubility ([1]; FeSSIF, 24 h, 1440 min): 81.4 µg/mL | S: solubility ([1]; H2O, 1 h, 60 min): 2.7 µg/mL | S: solubility ([1]; H2O, 2 h, 120 min): 2.5 µg/mL | S: solubility ([1]; H2O, 4 h, 240 min): 1.9 µg/mL | S: solubility ([1]; H2O, 24 h, 1440 min): 1.5 µg/mL | S: solubility ([1]; SGF, 1 h, 60 min): 56.8 µg/mL | S: solubility ([1]; SGF, 2 h, 120 min): 45.6 µg/mL | S: solubility ([1]; SGF, 4 h, 240 min): 23.3 µg/mL | S: solubility ([1]; SGF, 24 h, 1440 min): 18.1 µg/mL | FC: crystal form change ([1]; FaSSIF, 1 h): Yes | FC: crystal form change ([1]; FaSSIF, 2 h): Yes | FC: crystal form change ([1]; FaSSIF, 4 h): Yes | FC: crystal form change ([1]; FaSSIF, 24 h): Yes | FC: crystal form change ([1]; FeSSIF, 1 h): Yes | FC: crystal form change ([1]; FeSSIF, 2 h): Yes | FC: crystal form change ([1]; FeSSIF, 4 h): Yes | FC: crystal form change ([1]; FeSSIF, 24 h): Yes | FC: crystal form change ([1]; H2O, 1 h): Yes | FC: crystal form change ([1]; H2O, 2 h): Yes | FC: crystal form change ([1]; H2O, 4 h): Yes | FC: crystal form change ([1]; H2O, 24 h): Yes | FC: crystal form change ([1]; SGF, 1 h): Yes | FC: crystal form change ([1]; SGF, 2 h): Yes | FC: crystal form change ([1]; SGF, 4 h): Yes | FC: crystal form change ([1]; SGF, 24 h): Yes | pH ([1]; FaSSIF, 1 h): 2.92 | pH ([1]; FaSSIF, 2 h): 2.84 | pH ([1]; FaSSIF, 4 h): 2.74 | pH ([1]; FaSSIF, 24 h): 2.68 | pH ([1]; FeSSIF, 1 h): 4.68 | pH ([1]; FeSSIF, 2 h): 4.66 | pH ([1]; FeSSIF, 4 h): 4.68 | pH ([1]; FeSSIF, 24 h): 4.74 | pH ([1]; H2O, 1 h): 2.17 | pH ([1]; H2O, 2 h): 2.17 | pH ([1]; H2O, 4 h): 2.09 | pH ([1]; H2O, 24 h): 1.95 | pH ([1]; SGF, 1 h): 1.64 | pH ([1]; SGF, 2 h): 1.63 | pH ([1]; SGF, 4 h): 1.60 | pH ([1]; SGF, 24 h): 1.59 | vapor sorption values [2]: 0.171% | HPLC results Relative to starting (%) ([3]; 25 °C/60% RH/open, 1 week): 100.0% | HPLC results Purity (area%) ([3]; 25 °C/60% RH/open, 1 week, listed as Crystal form B of p-toluenesulfonate): 98.27 area% | HPLC results Relative to starting (%) ([3]; 40 °C/75% RH/open, 1 week): 100.0% | HPLC results Purity (area%) ([3]; 40 °C/75% RH/open, 1 week, listed as Crystal form B of p-toluenesulfonate): 98.25 area% | HPLC results Purity (area%) [3, 5]: 98.28 area% | HPLC results Relative to starting (%) [3, 5]: 100.0% | HPLC results Purity (area%) ([3]; Starting, listed as Crystal form B of p-toluenesulfonate): 98.28 area% | Crystal form ([3]; XRPD after 25 °C/60% RH/open, 1 week, listed as Crystal form B of p-toluenesulfonate): Crystal form B of p-toluenesulfonate | Crystal form ([3]; XRPD after 40 °C/75% RH/open, 1 week, listed as Crystal form B of p-toluenesulfonate): Crystal form B of p-toluenesulfonate | Crystal form ([3]; XRPD after 80 °C/sealed, 1 day, listed as Crystal form B of p-toluenesulfonate): Crystal form B of p-toluenesulfonate | S: solubility ([4]; FaSSIF, 2 h, 120 min): 85.8 µg/mL | S: solubility ([4]; FaSSIF, 24 h, 1440 min): 37.8 µg/mL | S: solubility ([4]; H2O, 24 h, 1440 min): 0.1 µg/mL | S: solubility ([4]; SGF, 2 h, 120 min): 41.3 µg/mL | S: solubility ([4]; SGF, 24 h, 1440 min): 19.7 µg/mL | pH ([4]; FaSSIF, 2 h): 6.5 | pH ([4]; FaSSIF, 24 h): 6.4 | pH ([4]; H2O, 2 h): 3.4 | pH ([4]; H2O, 24 h): 2.8 | pH ([4]; SGF, 2 h): 1.9 | pH ([4]; SGF, 24 h): 1.8
